Source: patent publication US8008298B2, “Pyrrolopyrazine kinase inhibitors” (Roche Palo Alto, priority 2008, dated 2011)

| melting point [°C] | Compound |
| --- | --- |
| 208 to 209 | CC1(C(=O)c2c[nH]c3ncc(-c4cccc(N5CCOCC5)c4)nc23)CCCCC1 [Example 153, (1-Methyl-cyclohexyl)-[2-(3-morpholin-4-yl-phenyl)-5H-pyrrolo[2,3-b]pyrazin-7-yl]-methanone] |
| 234 to 236 | Cc1nnc(-c2cccc(-c3cnc4[nH]cc(C(=O)C5(C)CCCCC5)c4n3)c2)o1 [Example 155, (1-Methyl-cyclohexyl)-{2-[3-(5-methyl-[1,3,4]oxadiazol-2-yl)-phenyl]-5H-pyrrolo[2,3-b]pyrazin-7-yl}-methanone] |
| 80 to 83 | CC1(C(=O)c2c[nH]c3ncc(-c4cccc(CCCO)c4)nc23)CCCCC1 [Example 156, {2-[3-(3-Hydroxy-propyl)-phenyl]-5H-pyrrolo[2,3-b]pyrazin-7-yl}-(1-methyl-cyclohexyl)-methanone] |
| 173 to 175 | COc1cccc(-c2cnc3[nH]cc(C(=O)C4(C)CCCCC4)c3n2)c1 [Example 157, [2-(3-Methoxy-phenyl)-5H-pyrrolo[2,3-b]pyrazin-7-yl]-(1-methyl-cyclohexyl)-methanone] |
| 272 to 274 | CN(C)c1ccc(-c2cnc3[nH]cc(C(=O)C4(C)CCCCC4)c3n2)cc1 [Example 158, [2-(4-Dimethylamino-phenyl)-5H-pyrrolo[2,3-b]pyrazin-7-yl]-(1-methyl-cyclohexyl)-methanone] |
| 192 to 193 | CC1(C(=O)c2c[nH]c3ncc(-c4cccc(N5CCCC5)c4)nc23)CCCCCC1 [Example 160, (1-Methyl-cycloheptyl)-[2-(3-pyrrolidin-1-yl-phenyl)-5H-pyrrolo[2,3-b]pyrazin-7-yl]-methanone] |
| 279 to 280 | O=C(c1c[nH]c2ncc(Br)nc12)C12CC3CC(CC(C3)C1)C2 [Example 161, Adamantan-1-yl-(2-bromo-5H-pyrrolo[2,3-b]pyrazin-7-yl)-methanone] |
| 267 to 268 | COc1cc(-c2cnc3[nH]cc(C(=O)C45CC6CC(CC(C6)C4)C5)c3n2)cc(OC)c1OC [Example 162, Adamantan-1-yl-[2-(3,4,5-trimethoxy-phenyl)-5H-pyrrolo[2,3-b]pyrazin-7-yl]-methanone] |
| 227 to 229 | COc1cc(-c2cnc3[nH]cc(C(=O)C(C)(C)CO)c3n2)cc(OC)c1OC [Example 165, 3-hydroxy-2,2-dimethyl-1-[2-(3,4,5-trimethoxy-phenyl)-5H-pyrrolo[2,3-b]pyrazin-7-yl]-propan-1-one] |
| 206.9 to 207.9 | CC1(C(=O)c2c[nH]c3ncc(Br)nc23)CCCC1 [Example 166, (2-Bromo-5H-pyrrolo[2,3-b]pyrazin-7-yl)-(1-methyl-cyclopentyl)-methanone] |
| 242 to 243 | CC1(C(=O)c2c[nH]c3ncc(-c4cccc(N5CCCC5)c4)nc23)CCCC1 [Example 167, (1-Methyl-cyclopentyl)-[2-(3-pyrrolidin-1-yl-phenyl)-5H-pyrrolo[2,3-b]pyrazin-7-yl]-methanone] |
| 229 to 231 | COc1cc(-c2cnc3[nH]cc(C(=O)C4(C)CCCC(C)C4)c3n2)cc(OC)c1OC (stereo not shown) [Example 169, (1,3-Dimethyl-cyclohexyl)-[2-(3,4,5-trimethoxy-phenyl)-5H-pyrrolo[2,3-b]pyrazin-7-yl]-methanone] |
| 225 to 226 | CN1CCN(c2ccc(-c3cnc4[nH]cc(C(=O)C5(C)CCCCC5)c4n3)cc2)CC1 [Example 170, (1-Methyl-cyclohexyl)-{2-[4-(4-methyl-piperazin-1-yl)-phenyl]-5H-pyrrolo[2,3-b]pyrazin-7-yl}-methanone] |
| 273 to 275 | CNc1ccc(-c2cnc3[nH]cc(C(=O)C4(C)CCCCC4)c3n2)cc1 [Example 171, [2-(4-Methylamino-phenyl)-5H-pyrrolo[2,3-b]pyrazin-7-yl]-(1-methyl-cyclohexyl)-methanone] |
| 233 to 235 | CC1(C(=O)c2c[nH]c3ncc(-c4ccc(N5CCOCC5)cc4)nc23)CCCCC1 [Example 172, (1-Methyl-cyclohexyl)-[2-(4-morpholin-4-yl-phenyl)-5H-pyrrolo[2,3-b]pyrazin-7-yl]-methanone] |
| 211 to 213 | CCN(CC)c1ccc(-c2cnc3[nH]cc(C(=O)C4(C)CCCCC4)c3n2)cc1 [Example 173, [2-(4-Diethylamino-phenyl)-5H-pyrrolo[2,3-b]pyrazin-7-yl]-(1-methyl-cyclohexyl)-methanone] |
| 234 to 236 | CC1(C(=O)c2c[nH]c3ncc(-c4ccc(N5CCCCC5)cc4)nc23)CCCCC1 [Example 174, (1-Methyl-cyclohexyl)-[2-(4-piperidin-1-yl-phenyl)-5H-pyrrolo[2,3-b]pyrazin-7-yl]-methanone] |
| 212 to 213 | CC(C)(C)OC(=O)N1CCN(c2cccc(-c3cnc4[nH]cc(C(=O)C5(C)CCCCC5)c4n3)c2)CC1 [Example 175, 4-{3-[7-(1-Methyl-cyclohexanecarbonyl)-5H-pyrrolo[2,3-b]pyrazin-2-yl]-phenyl}-piperazine-1-carboxylic acid tert-butyl ester] |
| 214 to 216 | CC1(C(=O)c2c[nH]c3ncc(-c4cccc(N5CCN(C(=O)CC#N)CC5)c4)nc23)CCCCC1 [Example 178, 3-(4-{3-[7-(1-Methyl-cyclohexanecarbonyl)-5H-pyrrolo[2,3-b]pyrazin-2-yl]-phenyl}-piperazin-1-yl)-3-oxo-propionitrile] |
| > 300 | CC1(C(=O)c2c[nH]c3ncc(-c4cccc(N5CCN(C(=O)C6CCNCC6)CC5)c4)nc23)CCCCC1 [Example 180, (1-Methyl-cyclohexyl)-(2-{3-[4-(piperidine-4-carbonyl)-piperazin-1-yl]-phenyl}-5H-pyrrolo[2,3-b]pyrazin-7-yl)-methanone] |
| 230 to 231 | CC1(C(=O)c2c[nH]c3ncc(-c4cccc(N5CCN(S(C)(=O)=O)CC5)c4)nc23)CCCCC1 [Example 181, {2-[3-(4-Methanesulfonyl-piperazin-1-yl)-phenyl]-5H-pyrrolo[2,3-b]pyrazin-7-yl}-(1-methyl-cyclohexyl)-methanone] |
| 233 to 235 | CC1(C(=O)c2c[nH]c3ncc(-c4cccc(N5CCN(S(N)(=O)=O)CC5)c4)nc23)CCCCC1 [Example 183, 4-{3-[7-(1-Methyl-cyclohexanecarbonyl)-5H-pyrrolo[2,3-b]pyrazin-2-yl]-phenyl}-piperazine-1-sulfonic acid amide] |
| 214 to 216 | CC1(C(=O)c2c[nH]c3ncc(-c4ccc(N5CCNCC5)cc4)nc23)CCCCC1 [Example 185, (1-Methyl-cyclohexyl)-[2-(4-piperazin-1-yl-phenyl)-5H-pyrrolo[2,3-b]pyrazin-7-yl]-methanone] |
| 278 to 284.9 | CC(=O)N1CCN(c2ccc(-c3cnc4[nH]cc(C(=O)C5(C)CCCCC5)c4n3)cc2)CC1 [Example 186, 1-(4-{4-[7-(1-Methyl-cyclohexanecarbonyl)-5H-pyrrolo[2,3-b]pyrazin-2-yl]-phenyl}-piperazin-1-yl)-ethanone] |
| 242 to 244 | COc1cc(-c2cnc3[nH]cc(C(=O)C4(C)CCC(O)CC4)c3n2)cc(OC)c1OC (stereo not shown) [Example 191, (4-Hydroxy-1-methyl-cyclohexyl)-[2-(3,4,5-trimethoxy-phenyl)-5H-pyrrolo[2,3-b]pyrazin-7-yl]-methanone] |
